# In PMC9161374 (Science Translational Medicine, 2022):
# Several values for one entry are separate records, joined by “and”; a condition that tells them apart may be missing. Identical values can stand only once.
# Experiments:
# [1] = test system: SARS-CoV-2 replicon system (pBAC-SARS-CoV-2-Replicon-Luc); assay: microbe, parasite or virus in culture; type: cell-based; conditions: Severe acute respiratory syndrome coronavirus 2, HEK-293T, 60 h
# SARS-CoV-2 (B.1) = assay: Anti-SARS-CoV-2 activity in Vero E6 cells (viral yield by qRT-PCR); type: cell-based
# [2] = test system: SARS-CoV-2 (Beta, B.1.351); assay: microbe, parasite or virus in culture; type: cell-based; conditions: for % Inhibition: beta
# [3] = test system: SARS-CoV-2 (Delta, B.1.617.2); assay: microbe, parasite or virus in culture; type: cell-based; conditions: for % Inhibition: delta
# [4] = test system: SARS-CoV-2 (B.1) in Huh7 cells; assay: Anti-SARS-CoV-2 activity in Huh7 cells (viral yield by qRT-PCR); type: cell-based; conditions: B.1, MOI 0.05, 48 h
# [5] = CCK-8 cell viability assay; type: cell-based, African green monkey; conditions: African green monkey; Vero E6 cells, 48 h, CCK8
# Outline: (§1)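 Vero E6 cells, 20,000/well, exposed to compound at 0–200 μM (0, 0.01, 0.1, 1, 5, 10, 50, 75, 100, 200 μM) for 48 h; viability read by CCK-8 and expressed as percentage versus drug concentration, mean ± SD.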
# Vero E6 cells = assay: CCK-8 cell viability assay; type: cell-based, African green monkey; conditions: individual replicate values, Fig.S4
# Outline: as §1
smiles,measurement,setting,value
CC(C)CC(=O)OC[C@H]1O[C@@](C#N)(c2ccc3c(N)ncnn23)[C@H](O)[C@@H]1O [ATV017],EC50,"[1]; read-out: EC50 (Confidence 95%), replicon",0.433 µM
same,EC90,"[1]; read-out: EC90 (Confidence 95%), replicon",0.576 µM
same,% Inhibition,"SARS-CoV-2 (B.1); 0.1 μM, replicates, sheet Fig.S3",0%
same,% Inhibition,"SARS-CoV-2 (B.1); 0.5 μM, replicates, sheet Fig.S3",0%
same,% Inhibition,"SARS-CoV-2 (B.1); 1 μM, replicates, sheet Fig.S3",65.5016%
same,% Inhibition,"SARS-CoV-2 (B.1); 2 μM, replicates, sheet Fig.S3",89.9686%
same,% Inhibition,"SARS-CoV-2 (B.1); 5 μM, replicates, sheet Fig.S3",91.0527%
same,% Inhibition,"SARS-CoV-2 (B.1); 10 μM, replicates, sheet Fig.S3",91.8254%
same,% Inhibition,"SARS-CoV-2 (B.1); B.1, 0.01 uM, Vero E6, replicates",0%
same,% Inhibition,"SARS-CoV-2 (B.1); B.1, 0.1 uM, Vero E6, replicates",0%
same,% Inhibition,"SARS-CoV-2 (B.1); B.1, 0.25 uM, Vero E6, replicates",0%
same,% Inhibition,"SARS-CoV-2 (B.1); B.1, 0.5 uM, Vero E6, replicates",0%
same,% Inhibition,"SARS-CoV-2 (B.1); B.1, 1 uM, Vero E6, replicates",0%
same,% Inhibition,"SARS-CoV-2 (B.1); B.1, 5 uM, Vero E6, replicates, 5 µM",99.7611%
same,% Inhibition,"SARS-CoV-2 (B.1); B.1, 10 uM, Vero E6, replicates, 10 µM",99.9908%
same,% Inhibition,"SARS-CoV-2 (B.1); B.1, 50 uM, Vero E6, replicates, 50 µM",99.9887%
same,inhibition at 0.1 µM,"SARS-CoV-2 (B.1); Severe acute respiratory syndrome coronavirus 2, Vero C1008, 0.1 μM, replicates, sheet Fig.S3",0%
same,inhibition at 0.5 µM,"SARS-CoV-2 (B.1); Severe acute respiratory syndrome coronavirus 2, Vero C1008, 0.5 μM, replicates, sheet Fig.S3",0%
same,inhibition at 1 µM,"SARS-CoV-2 (B.1); Severe acute respiratory syndrome coronavirus 2, Vero C1008, 1 μM, replicates, sheet Fig.S3",62.2%
same,inhibition at 2 µM,"SARS-CoV-2 (B.1); Severe acute respiratory syndrome coronavirus 2, Vero C1008, 2 μM, replicates, sheet Fig.S3",89.2%
same,inhibition at 5 µM,"SARS-CoV-2 (B.1); Severe acute respiratory syndrome coronavirus 2, Vero C1008, 5 μM, replicates, sheet Fig.S3",92.3%
same,inhibition at 10 µM,"SARS-CoV-2 (B.1); Severe acute respiratory syndrome coronavirus 2, Vero C1008, 10 μM, replicates, sheet Fig.S3",93.6%
same,inhibition at 0.01 µM,"SARS-CoV-2 (B.1); Severe acute respiratory syndrome coronavirus 2, Vero C1008, B.1, 0.01 uM, Vero E6, replicates",0%
same,inhibition at 0.1 µM,"SARS-CoV-2 (B.1); Severe acute respiratory syndrome coronavirus 2, Vero C1008, B.1, 0.1 uM, Vero E6, replicates",0%
same,inhibition at 0.25 µM,"SARS-CoV-2 (B.1); Severe acute respiratory syndrome coronavirus 2, Vero C1008, B.1, 0.25 uM, Vero E6, replicates",0%
same,inhibition at 0.5 µM,"SARS-CoV-2 (B.1); Severe acute respiratory syndrome coronavirus 2, Vero C1008, B.1, 0.5 uM, Vero E6, replicates",0%
same,inhibition at 1 µM,"SARS-CoV-2 (B.1); Severe acute respiratory syndrome coronavirus 2, Vero C1008, B.1, 1 uM, Vero E6, replicates",0%
same,inhibition at 5 µM,"SARS-CoV-2 (B.1); Severe acute respiratory syndrome coronavirus 2, Vero C1008, B.1, 5 uM, Vero E6, replicates",99.6%
same,inhibition at 10 µM,"SARS-CoV-2 (B.1); Severe acute respiratory syndrome coronavirus 2, Vero C1008, B.1, 10 uM, Vero E6, replicates",99.9%
same,inhibition at 50 µM,"SARS-CoV-2 (B.1); Severe acute respiratory syndrome coronavirus 2, Vero C1008, B.1, 50 uM, Vero E6, replicates",99.9%
same,EC90,"SARS-CoV-2 (B.1); Severe acute respiratory syndrome coronavirus 2, Vero C1008, read-out: EC90 (Confidence 95%), Vero-E6, B.1",2.48 µM
same,EC50,"SARS-CoV-2 (B.1); Severe acute respiratory syndrome coronavirus 2, Vero C1008, MOI 0.05, 48 h",2.19 µM
same,EC50,"[2]; Severe acute respiratory syndrome coronavirus 2, Vero C1008, 48 h, read-out: EC50 in Vero E6 cells, SARS-CoV-2 (Beta, B.1.351)",2.85 µM
same,inhibition at 0.01 µM,"[2]; Severe acute respiratory syndrome coronavirus 2, Vero C1008, beta, 0.01 uM, Vero E6, replicates",0%
same,inhibition at 0.1 µM,"[2]; Severe acute respiratory syndrome coronavirus 2, Vero C1008, beta, 0.1 uM, Vero E6, replicates",0%
same,inhibition at 0.25 µM,"[2]; Severe acute respiratory syndrome coronavirus 2, Vero C1008, beta, 0.25 uM, Vero E6, replicates",0%
same,inhibition at 0.5 µM,"[2]; Severe acute respiratory syndrome coronavirus 2, Vero C1008, beta, 0.5 uM, Vero E6, replicates",0%
same,inhibition at 1 µM,"[2]; Severe acute respiratory syndrome coronavirus 2, Vero C1008, beta, 1 uM, Vero E6, replicates",0%
same,inhibition at 5 µM,"[2]; Severe acute respiratory syndrome coronavirus 2, Vero C1008, beta, 5 uM, Vero E6, replicates",99.7%
same,inhibition at 10 µM,"[2]; Severe acute respiratory syndrome coronavirus 2, Vero C1008, beta, 10 uM, Vero E6, replicates",99.9%
same,EC90,"[2]; Severe acute respiratory syndrome coronavirus 2, Vero C1008, read-out: EC90 (Confidence 95%), Vero-E6, Beta B.1.351",3.41 µM
same,% Inhibition,"[2]; 0.01 uM, Vero E6, replicates",0%
same,% Inhibition,"[2]; 0.1 uM, Vero E6, replicates",0%
same,% Inhibition,"[2]; 0.25 uM, Vero E6, replicates",0%
same,% Inhibition,"[2]; 0.5 uM, Vero E6, replicates",0%
same,% Inhibition,"[2]; 1 uM, Vero E6, replicates",0%
same,% Inhibition,"[2]; 2 uM, Vero E6, replicates",6.056% and 0%
same,% Inhibition,"[2]; 5 uM, Vero E6, replicates",99.5481%
same,% Inhibition,"[2]; 10 uM, Vero E6, replicates",99.9499%
same,% Inhibition,"[2]; 50 uM, Vero E6, replicates",99.982%
same,EC50,"[3]; Severe acute respiratory syndrome coronavirus 2, Vero C1008, 48 h, read-out: EC50 in Vero E6 cells, SARS-CoV-2 (Delta, B.1.617.2)",0.428 µM
same,inhibition at 0.01 µM,"[3]; Severe acute respiratory syndrome coronavirus 2, Vero C1008, delta, 0.01 uM, Vero E6, replicates",0%
same,inhibition at 0.1 µM,"[3]; Severe acute respiratory syndrome coronavirus 2, Vero C1008, delta, 0.1 uM, Vero E6, replicates",0%
same,inhibition at 0.25 µM,"[3]; Severe acute respiratory syndrome coronavirus 2, Vero C1008, delta, 0.25 uM, Vero E6, replicates",0%
same,inhibition at 0.5 µM,"[3]; Severe acute respiratory syndrome coronavirus 2, Vero C1008, delta, 0.5 uM, Vero E6, replicates",82.8%
same,inhibition at 1 µM,"[3]; Severe acute respiratory syndrome coronavirus 2, Vero C1008, delta, 1 uM, Vero E6, replicates",90.3%
same,inhibition at 2 µM,"[3]; Severe acute respiratory syndrome coronavirus 2, Vero C1008, delta, 2 uM, Vero E6, replicates",94.4%
same,inhibition at 5 µM,"[3]; Severe acute respiratory syndrome coronavirus 2, Vero C1008, delta, 5 uM, Vero E6, replicates",93.9%
same,inhibition at 10 µM,"[3]; Severe acute respiratory syndrome coronavirus 2, Vero C1008, delta, 10 uM, Vero E6, replicates",100%
same,EC90,"[3]; Severe acute respiratory syndrome coronavirus 2, Vero C1008, read-out: EC90 (Confidence 95%), Vero-E6, Delta B.1.617.2",0.516 µM
same,% Inhibition,"[3]; 0.01 uM, Vero E6, replicates",0%
same,% Inhibition,"[3]; 0.1 uM, Vero E6, replicates",0%
same,% Inhibition,"[3]; 0.25 uM, Vero E6, replicates",0%
same,% Inhibition,"[3]; 0.5 uM, Vero E6, replicates",80.6558%
same,% Inhibition,"[3]; 1 uM, Vero E6, replicates",88.2825%
same,% Inhibition,"[3]; 2 uM, Vero E6, replicates",91.1914%
same,% Inhibition,"[3]; 5 uM, Vero E6, replicates",90.8502%
same,% Inhibition,"[3]; 10 uM, Vero E6, replicates",99.8554%
same,% Inhibition,"[3]; 50 uM, Vero E6, replicates",99.5879%
same,EC50,"[4]; Severe acute respiratory syndrome coronavirus 2, Huh-7, read-out: EC50 (Confidence 95%) in Huh7 cells",0.905 µM
same,EC90,"[4]; Severe acute respiratory syndrome coronavirus 2, Huh-7, read-out: EC90 (Confidence 95%) in Huh7 cells",1.17 µM
same,CC50 at 48 h,[5],> 50 µM
same,cell viability (% of control),"Vero E6 cells; 1 μM compound, 1 µM",88.7524 % of control and 100.803 % of control and 120.919 % of control
same,cell viability (% of control),"Vero E6 cells; 2 μM compound, 2 µM",88.0108 % of control and 98.9031 % of control and 128.104 % of control
same,cell viability (% of control),"Vero E6 cells; 5 μM compound, 5 µM",90.8382 % of control and 109.656 % of control and 135.798 % of control
same,cell viability (% of control),"Vero E6 cells; 10 μM compound, 10 µM",94.2217 % of control and 115.404 % of control and 120.363 % of control
same,cell viability (% of control),"Vero E6 cells; 20 μM compound, 20 µM",80.7802 % of control and 92.136 % of control and 131.024 % of control
same,cell viability (% of control),"Vero E6 cells; 50 μM compound, 50 µM",71.9737 % of control and 85.3225 % of control and 97.3272 % of control
